This note sets out measurements from ChEMBL document CHEMBL4396961, “Exploring the size of the lipophilic unit of the soluble epoxide hydrolase inhibitors” (Bioorg Med Chem, 2019).

Series [1] in a line: Apparent permeability across basolateral to apical membrane in human Caco2 cells at 10 uM measured after 2 hrs by UPLC-MS/MS analysis. Particulars: caco-2, 2 h. (Caco-2 monolayers are a common model of the intestinal barrier.)
Series [2] in a line: Apparent permeability across apical to basolateral membrane in human Caco2 cells at 10 uM measured after 2 hrs by UPLC-MS/MS analysis. The following applies: caco-2, 2 h.
A short description of series [3]: physchem. The following applies: 1% DMSO : 99% PBS buffer solution.
Series [4] has as its target T1, Bifunctional epoxide hydrolase 2 (Homo sapiens, UniProt P34913).
T1 sequence (P34913 whole entry): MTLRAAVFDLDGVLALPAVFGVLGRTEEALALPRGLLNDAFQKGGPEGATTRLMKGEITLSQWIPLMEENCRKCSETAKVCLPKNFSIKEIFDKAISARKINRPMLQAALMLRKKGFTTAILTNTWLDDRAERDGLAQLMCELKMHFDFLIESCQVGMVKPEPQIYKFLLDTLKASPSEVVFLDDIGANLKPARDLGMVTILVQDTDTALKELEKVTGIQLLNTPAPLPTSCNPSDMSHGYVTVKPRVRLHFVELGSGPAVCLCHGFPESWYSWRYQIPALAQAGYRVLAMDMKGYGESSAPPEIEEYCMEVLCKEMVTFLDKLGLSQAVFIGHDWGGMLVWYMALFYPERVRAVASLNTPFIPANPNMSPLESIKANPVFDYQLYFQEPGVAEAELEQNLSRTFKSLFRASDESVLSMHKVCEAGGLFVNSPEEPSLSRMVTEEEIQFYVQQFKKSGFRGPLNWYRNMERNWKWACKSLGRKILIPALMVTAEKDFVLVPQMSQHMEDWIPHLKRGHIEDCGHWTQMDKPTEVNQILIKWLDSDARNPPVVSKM
The series is described as follows: Inhibition of recombinant human liver soluble epoxide hydrolase expressed in baculovirus infected Sf21 cells using NEPC as substrate by fluorescence based assay. Format: cell-based.

Series [5] is described as follows: Microsomal stability in human microsomes assessed as parent compound remaining in presence of NADP, glucose-6-phosphate and glucose-6-phosphate dehydrogenase measured after 60 mins by UPLC-MS/MS analysis.
Series [6] has as its target T2, Bifunctional epoxide hydrolase 2 (Mus musculus, UniProt P34914).
T2 sequence (P34914 whole entry): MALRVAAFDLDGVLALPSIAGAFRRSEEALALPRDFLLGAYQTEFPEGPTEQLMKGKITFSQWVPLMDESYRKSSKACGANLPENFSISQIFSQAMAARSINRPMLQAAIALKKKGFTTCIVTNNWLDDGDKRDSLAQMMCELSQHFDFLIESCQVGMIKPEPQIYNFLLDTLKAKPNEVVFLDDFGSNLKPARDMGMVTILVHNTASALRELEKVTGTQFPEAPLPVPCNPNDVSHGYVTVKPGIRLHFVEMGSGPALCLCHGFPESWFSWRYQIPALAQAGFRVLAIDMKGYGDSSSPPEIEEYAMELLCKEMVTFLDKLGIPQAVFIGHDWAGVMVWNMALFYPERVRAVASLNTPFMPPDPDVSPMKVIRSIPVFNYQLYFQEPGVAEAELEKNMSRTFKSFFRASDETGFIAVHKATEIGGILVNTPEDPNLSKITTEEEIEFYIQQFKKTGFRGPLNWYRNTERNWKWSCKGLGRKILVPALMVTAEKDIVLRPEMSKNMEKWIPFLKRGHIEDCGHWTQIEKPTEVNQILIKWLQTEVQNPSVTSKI
Nature of the series: Inhibition of murine soluble epoxide hydrolase expressed in baculovirus infected Sf21 cells using NEPC as substrate by fluorescence based assay. It is filed as cell-based.

Series [7] can be described thus: Efflux ratio of apparent permeability across basolateral to apical membrane over apical to basolateral membrane in human Caco2 cells at 10 uM measured after 2 hrs by UPLC-MS/MS analysis. The following applies: caco-2, 2 h.

In brackets after ≈: the same amount, converted by molar mass.

As a reminder, the Papp is a coefficient for how fast a substance crosses the barrier. Usually solubility (kinetic) stands for the concentration staying in solution when a stock, usually in DMSO, is diluted into the medium. Broadly, the IC50 is the concentration that inhibits the measured activity by half.

Turning to `O=C(Nc1ccc(F)c(F)c1F)NC12CC3CC(CC(C3)C1)C2`, the figures for the Papp in series [1] and in series [2] were 0.18 ×10⁻⁶ cm/s and 1.18 ×10⁻⁶ cm/s, respectively. Besides, the kinetic solubility at 2 h in series [3] was found to be 57 µM (≈ 18.5 µg/mL).

With `CC(=O)N1CCC(NC(=O)NC23CC4CC(CC2C4)C3)CC1`, the IC50 in series [4] came to 21.7 nM. The remaining at 1 h in series [5] is 88.7%.

With `CC12CC3CC1(C)CC3(NC(=O)Nc1ccc(F)c(F)c1F)C2`, the IC50 in series [4] is 0.5 nM. In series [3], this compound returned a kinetic solubility at 2 h of 66 µM (≈ 21.4 µg/mL). In addition, the remaining at 1 h in series [5] amounted to 30%.

On to `CC12CC3CC1(C)CC3(CNC(=O)Nc1ccc(F)c(F)c1F)C2`, for which, in series [4], the IC50 came to 0.4 nM.

Consider `CC(=O)N1CCC(NC(=O)NC23CC4(C)CC2CC4(C)C3)CC1`, for which the IC50 in series [6] was determined as 3.3 nM; in series [4] it was 6.5 nM. For the same compound, the Papp in series [1] stood at 18.02 ×10⁻⁶ cm/s; in series [2] it was 15.92 ×10⁻⁶ cm/s. Moreover, in series [7], the Ratio is 1.1. This compound showed a solubility (kinetic) at 2 h in series [3] of more than 100 µM. Also, the remaining at 1 h in series [5] turned out to be 59.3%.

Turning to `CC(=O)N1CCC(NC(=O)NC2C3CC4C5CC6CC4C2C(C6)C5C3)CC1` (stereo unspecified), the IC50 in series [6] is 5 nM; in series [4], 3.4 nM. Moreover, the Papp in series [1] came out at 14.69 ×10⁻⁶ cm/s; in series [2], 15.62 ×10⁻⁶ cm/s. The Ratio in series [7] was 1. Besides, the solubility (kinetic) at 2 h in series [3] came to 86 µM (≈ 32 µg/mL). The remaining at 1 h in series [5] amounted to 0%.

Turning to `O=C(NC1C2CC3C4CC5CC3C1C(C5)C4C2)N[C@H]1CC[C@H](Oc2ccc(C(=O)O)cc2)CC1` (stereo partly specified), the Papp in series [1] was 6.75 ×10⁻⁶ cm/s; in series [2] it was 0.31 ×10⁻⁶ cm/s. Besides, the IC50 in series [4] stood at 0.5 nM. Moreover, the Ratio in series [7] is 22.2. Also, in series [3], the solubility (kinetic) at 2 h came to 7 µM (≈ 3.25 µg/mL). The remaining at 1 h in series [5] worked out at 14.6%.

Take `CC(=O)N1CCC(NC(=O)NC23CC4CC(CC(C4)C2)C3)CC1` [AR9281]: the kinetic solubility at 2 h in series [3] was more than 100 µM.

In the case of `C[C@]12CC[C@H]3[C@@H](CCC4=CC(=O)CC[C@@]43C)[C@@H]1CC[C@@H]2O` [TESTOSTERONE], the remaining at 1 h in series [5] was found to be 22.4%.
